The results in this text go back to patent US7910579B2, “Benzoxazole derivatives” (Tohoku University, priority 2006, dated 2011).

Read-outs that look alike come from different tables or passages of the source.

The subject of data set [1] is histidine-requiring Salmonella typhimurium TA100 and TA98 strains. The data set is described as follows: Mutagenicity Test (reverse mutation test). On Relative Activity in the presence of S9Mix: key: minus: The number of colonies after reverse mutation did not increase at least two times that of the negative control. To be noted: for Relative Activity in the presence of S9Mix / Relative Activity in the absence of S9Mix: reverse mutation test. The class given is cell-based. The essentials: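 Preincubation reverse-mutation test in S. typhimurium TA100 and TA98, with and without S9mix, 20 min at 37° C, then 48 h at 37° C on minimal glucose agar. Six doses (common ratio 2) in DMSO, top dose 5000 μg/plate or growth-inhibiting dose. Revertant colonies counted; positive at ≥2-fold over DMSO control with dose dependency or reproducibility.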

A short description of data set [2]: Brain Permeability Test Through HPLC. The class given is in vivo. To be noted: mice, 2 minutes after intravenous administration. As to the method:
A compound of the invention was intravenously administered to mice, and tested for its in-vivo brain permeability in the mice.
(1) Slc:ICR mice (by Nippon SLC) (body weight, 30 to 40 g; n=3) were used.
(2) A test compound was dissolved in a mixture of 5% Tween 80-5% ethyl alcohol-5% 1 N HCl-physiological saline water, and injected into the test mouse via its tail vein. Two minutes after the administration, the blood was collected from the test mouse under ether anesthesia via its abdominal aorta using a heparin-steeped syringe, and the brain material was collected from it.
(3) After collected, the blood was centrifuged at 4° C. and 14,000 rpm for 10 minutes, and the supernatant was stored at −80° C. as plasma. After collected, the brain material (including the cerebellum) was stored at −80° C.
(4) 0.3 ml of acetonitrile was added to 0.1 ml of the plasma, then vortexed, and centrifuged at 4° C. and under 10,000 G for 5 minutes. After centrifuged, 0.2 ml of the resulting supernatant was transferred into Mini-Uniprep (Whatman), then 0.2 ml of 20 mM phosphate buffer was added to it and filtered. 0.2 ml of the resulting filtrate was analyzed through HPLC (Shiseido Nanospace SI-2; pump, 3001; UV-VIS detector, 3002; column thermostat, 3004; fluorescence detector, 3013).
(5) 2 ml of methanol was added to the brain, homogenized, and centrifuged at 4° C. and 3000 or 4000 rpm for 10 minutes. After centrifuged, 500 μl of the resulting supernatant was diluted 10-fold with 20 mM phosphate buffer. (i) 2 to 3 ml of acetonitrile, (ii) 2 to 5 ml of methanol and (iii) 4 to 6 ml of ultra-pure water were led through a cartridge for solid-phase extraction (J. T. Baker Speedisk) in that order, and the 10-fold diluted supernatant solution was led through it. Via an empty syringe, air was applied to the cartridge for solid-phase extraction, two or three times to remove water, and then this was eluted with about 500 μl of acetonitrile or methanol, and the eluate was diluted 2-fold with 20 mM phosphate buffer. 0.2 ml of the resulting solution was analyzed through HPLC.
(6) The test compound content in the plasma and in the brain was determined relative to the dose of the compound (% ID (injected dose)/g or ml).

Data set [3] concerns the target T1, Amyloid β protein 1-40 (Homo sapiens, UniProt P05067).
T1 construct: Amyloid β protein 1-40 (bought from Peptide Laboratory); purchased Peptide Laboratory
The data set is described as follows: Fluorescence Congo Red Method. The class given is binding. To be noted: 1 h, compound 10 μM, amyloid β protein 5 μM.

Where [4] appears, read: irrespective of the absence or presence of S9mix.
[5] abbreviates: Congo red 0.1 μM, read-out: Binding Percentage of Compound in the presence of 0.1 μM CR.
Where [6] appears, read: Congo red 0.3 μM, read-out: Binding Percentage of Compound in the presence of 0.3 μM CR.
Where [7] appears, read: Congo red 1 μM, read-out: Binding Percentage of Compound in the presence of 1 μM CR.

T1 sequence (P05067 672-711): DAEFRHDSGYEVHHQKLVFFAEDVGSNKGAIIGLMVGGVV

Consider `FCCOc1ccc2nc(/C=C/c3cnc(N4CCOCC4)s3)oc2c1` [THK-525, 6-(2-fluoro-ethoxy)-2-[2-(2-morpholin-4-yl-thiazol-5-yl)-vinyl]-benzoxazole], for which the “Relative activity (mutagenicity)” value in data set [1] (setting [4]) was “minus”. Further, in data set [1], the “Relative Activity in the presence of S9Mix” value was “minus” and the “Relative Activity in the absence of S9Mix” value is “minus”. For the same molecule, in data set [2], the “Brain Permeability: Brain” value is 7.9 % ID/g or ml and the “Brain Permeability: Plasma” value is recorded as 3.1 % ID/g or ml. Besides, the activity at 10 µM in data set [3] (setting [5]) is 61.4%. The activity at 10 µM in data set [3] (setting [6]) was 24.1%. Besides, the activity at 10 µM in data set [3] (setting [7]) is -6.4%.

Take `OCC(CF)Oc1ccc2nc(/C=C/c3cnc(N4CCOCC4)s3)oc2c1` (stereo not drawn) [THK-702, (E)-2-[2-(2-morpholinothiazol-5-yl)ethenyl]-6-[(1-fluoromethyl-2-hydroxy)ethoxy]-benzoxazole]: in data set [1] (setting [4]), the “Relative activity (mutagenicity)” value is “minus”. Moreover, in data set [1], the “Relative Activity in the presence of S9Mix” value is given as “minus” and the “Relative Activity in the absence of S9Mix” value is recorded as “minus”. Further, in data set [2], the “Brain Permeability: Brain” value is on record as 5.1 % ID/g or ml and the “Brain Permeability: Plasma” value was 2.7 % ID/g or ml. Further, in data set [3] (setting [5]), the activity at 10 µM is 74.9%. In data set [3] (setting [6]), the activity at 10 µM turned out to be 37.3%. For the same molecule, the activity at 10 µM in data set [3] (setting [7]) turned out to be 0.8%.

`OCC(CF)Oc1ccc2nc(/C=C/c3cnc(N4CCCC4)s3)oc2c1` (stereo not drawn) [THK-752, (E)-6-[(1-fluoromethyl-2-hydroxy)ethoxy]-2-[2-[2-(pyrrolidin-1-yl)-thiazol-5-yl]ethenyl]benzoxazole]: in data set [1] (setting [4]), the “Relative activity (mutagenicity)” value is “minus”. In data set [1], the “Relative Activity in the presence of S9Mix” value was “minus” and the “Relative Activity in the absence of S9Mix” value was “minus”. Moreover, in data set [2], the “Brain Permeability: Brain” value was 6.7 % ID/g or ml and the “Brain Permeability: Plasma” value was 1.9 % ID/g or ml. Also, the activity at 10 µM in data set [3] (setting [5]) was 50.4%. For the same molecule, the activity at 10 µM in data set [3] (setting [6]) worked out at 20.6%. Further, the activity at 10 µM in data set [3] (setting [7]) stood at 11.3%.

Take `CNc1ncc(/C=C/c2nc3ccc(OC(CO)CF)cc3o2)s1` (stereo not drawn) [THK-761, (E)-6-[(1-fluoromethyl-2-hydroxy)ethoxy]-2-[2-[2-methylaminothiazol-5-yl]ethenyl]-benzoxazole]: in data set [1] (in the presence of S9mix), the “Relative activity (mutagenicity)” value is reported as “weak”. Besides, the “Relative Activity in the presence of S9Mix” value in data set [1] was “minus”. In addition, the “Relative Activity in the absence of S9Mix” value in data set [1] was found to be 11995. For the same molecule, the activity at 10 µM in data set [3] (setting [5]) is 55.2%; in data set [3] (setting [6]) it was 21.6%; in data set [3] (setting [7]) it was 7%.

`CN(C)c1ncc(/C=C/c2nc3ccc(OC(CO)CF)cc3o2)s1` (stereo not drawn) [THK-763, (E)-6-[(1-fluoromethyl-2-hydroxy)ethoxy]-2-[2-[2-dimethylamino-thiazol-5-yl]ethenyl]benzoxazole]: the “Relative activity (mutagenicity)” value in data set [1] (in the presence of S9mix) is reported as “weak”. In addition, the “Relative Activity in the presence of S9Mix” value in data set [1] is listed as “minus”. Moreover, the “Relative Activity in the absence of S9Mix” value in data set [1] was 3058. Moreover, the activity at 10 µM in data set [3] (setting [5]) was 54.7%; in data set [3] (setting [6]) it was 22.9%; in data set [3] (setting [7]), 7.5%.
